According to PubChem BioAssay (NCI):
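48-hour exposure; five concentrations; linearly interpolated endpoints. Here, GI50 denotes the concentration required for 50% inhibition of growth. TGI: concentration producing complete growth inhibition.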

How the values were obtained:
Test in all cases: NCI anticancer screen, dose series, 48 h
HL-60(TB) leukemia = system: HL-60(TB) leukemia
KM12 colon = system: KM12 colon
LOX IMVI melanoma = system: LOX IMVI melanoma
MDA-MB-435 = system: MDA-MB-435
NCI/ADR-RES ovarian = system: NCI/ADR-RES ovarian
SF-268 CNS = system: SF-268 CNS
SR leukemia = system: SR leukemia
U251 CNS = system: U251 CNS
SK-OV-3 ovarian = system: SK-OV-3 ovarian
T-47D breast = system: T-47D breast

Compound	TGI (HL-60(TB) leukemia) [µM]	TGI (KM12 colon) [µM]	TGI (LOX IMVI melanoma) [µM]	TGI (MDA-MB-435) [µM]	TGI (NCI/ADR-RES ovarian) [µM]	TGI (SF-268 CNS) [µM]	TGI (SR leukemia) [µM]	TGI (U251 CNS) [µM]	TGI (SK-OV-3 ovarian) [µM]	GI50 (HL-60(TB) leukemia) [µM]	GI50 (KM12 colon) [µM]	GI50 (LOX IMVI melanoma) [µM]	GI50 (SF-268 CNS) [µM]	GI50 (SK-OV-3 ovarian) [µM]	GI50 (SR leukemia) [µM]	GI50 (T-47D breast) [µM]	TGI (T-47D breast) [µM]	GI50 (U251 CNS) [µM]	GI50 (MDA-MB-435) [µM]	GI50 (NCI/ADR-RES ovarian) [µM]
CC(CO)(Nc1ccc([N+](=O)[O-])cc1[N+](=O)[O-])C(=O)O (centres undefined)	35.4	> 100	48.2	44.9	> 100	48.9	24.8	49.2												
O=C(/C=C/c1ccc(Cl)c(Cl)c1)c1cccc2ccccc12	7.21	16.3				14.2		6.89	35.2											
O=C1C=C(O)C(=Cc2c(O)cc(O)cc2O)C(O)=C1	> 100	> 100	> 100			> 100	> 100	> 100	> 100											
Cc1ccc(NC(=O)C(=O)C(C(=O)/C=C/c2ccccc2)C2OC(=O)c3ccccc32)c(C)c1 (centres undefined)	> 100	> 100	> 100			> 100	> 100	> 100	> 100											
CC1=NN(c2ccccc2)C(=O)/C1=C\c1ccc([N+](=O)[O-])cc1	56.2	64.3	48.1			> 100		> 100	58.7											
N[C@H](COCc1ccccc1)c1ccccc1	30.8	> 100	> 92.2			> 100	56	> 100	> 100											
N#CCCNc1nonc1-c1nc2ccccc2n1CC(=O)c1ccc(NC(=O)[C@@H](N)CCCCN)cc1			> 100	0.0742		> 100	> 100	> 100	> 100	0.0317	0.0279	0.0513	0.071	0.0313	0.025	> 73.8	> 100	0.0445		
Cc1ccccc1-n1c(N)c(-c2nc3ccccc3[nH]2)sc1=S	66.6	39.9	52.6			69.6			72.6											
NC1=NC(=O)C(CC(=O)Nc2ccc(Cl)cc2Cl)S1 (centres undefined)		> 100	> 100			> 100		> 100	> 100											
CCC(=O)Nc1ccc(N2C(=O)/C(=C/c3ccc(OC)cc3)N=C2c2ccccc2)cc1	> 50	> 50	13.2	> 50	> 50	> 50	> 50	8.87		23.7	3.65	2.51	4.88		1.4			1.66	20.5	9.77
O=Cc1ccc2c(c1I)OCO2	> 100	> 100	> 100				> 100	> 100	> 100											
COc1cc(C(=O)c2cc(C)c3[nH]c4ccc(O)cc4c3c2C)cc(OC)c1OC	0.0797	23.8	> 100	0.018		> 100	> 100	> 100	98.6	0.0246	< 0.0127	< 0.0143	0.0741	0.267	< 0.01			0.0226	< 0.01	< 0.01
CC(=O)/C(=C\c1ccccc1O)C(=O)Nc1ccccc1C	41.8	41.5	27.6			> 100	48.1	24.7	> 100											
N#CNc1nc(N)c(-c2ccc(Cl)cc2)c(C(=O)Nc2nccs2)n1	> 100	> 100	> 100			> 100		> 100												
c1cc(-c2cn3c(n2)SCC3)ccn1	> 67.5	> 100	> 100			> 100	> 100	> 100	> 100											
O=C(O)CCNS(=O)(=O)c1ccc([N+](=O)[O-])cc1	> 100	> 100	> 100			> 100		> 100	> 100											
N#CC1(C#N)C(c2ccccc2)C=CC12OCCCO2 (centres undefined)	92.3	> 100	> 100			> 100	> 100	> 100	> 100											
CCOc1ccc(NC(=O)CCc2nnc(SC)o2)cc1	> 100	> 100	> 100			> 100	> 100	> 100	> 100											

Compound	TGI (HL-60(TB) leukemia) [µM]	TGI (KM12 colon) [µM]	TGI (LOX IMVI melanoma) [µM]	TGI (MDA-MB-435) [µM]	TGI (NCI/ADR-RES ovarian) [µM]	TGI (SF-268 CNS) [µM]	TGI (SR leukemia) [µM]	TGI (U251 CNS) [µM]	TGI (SK-OV-3 ovarian) [µM]	GI50 (HL-60(TB) leukemia) [µM]	GI50 (KM12 colon) [µM]	GI50 (LOX IMVI melanoma) [µM]	GI50 (SF-268 CNS) [µM]	GI50 (SK-OV-3 ovarian) [µM]	GI50 (SR leukemia) [µM]	GI50 (T-47D breast) [µM]	TGI (T-47D breast) [µM]	GI50 (U251 CNS) [µM]	GI50 (MDA-MB-435) [µM]	GI50 (NCI/ADR-RES ovarian) [µM]
ClC1=C(Cl)C(Cl)(Cl)c2c3c(c4c(c21)C(Cl)(Cl)C(Cl)=C4Cl)C(Cl)(Cl)C(Cl)=C3Cl	> 100	> 100	> 100			> 100	> 100	> 100	> 100											
CC1=C(CC2C(=O)N(c3ccccc3)S(=O)(=O)NC2C)C(=O)N(c2ccccc2)S(=O)(=O)N1C (centres undefined)		> 100	> 100			> 100	> 100		> 100											
C[C@@H]1O[C@@H](O[C@@H]2[C@@H](O)[C@H](OCCc3ccc(O)c(O)c3)O[C@H](CO)[C@H]2OC(=O)/C=C/c2ccc(O)c(O)c2)[C@H](O)[C@H](OC2OC[C@](O)(CO)[C@H]2O)[C@H]1O (some centres undefined)	> 100	> 100	37	34.6		53.4	> 100	> 100	> 100	> 100	> 100	19.4		> 100	> 100	> 100	> 100	> 100	17.5	
COc1ccc(OC(=O)CC2Cc3cc(OC)c(OC)c(OC)c3-c3ccc(SC)c(=O)cc32)cc1 (centres undefined)	2.35	19.6	17.8			> 100	> 100	> 100	61.4											
N#CCN1C(=O)c2cc([N+](=O)[O-])cc3cc([N+](=O)[O-])cc(c23)C1=O	> 24.1	28	18.8			48.8	12.6	> 55.6	> 100											
CC(C)(C)c1cc2nc(c1)C(C(F)(F)F)(C(F)(F)F)OB(Br)OC2(C(F)(F)F)C(F)(F)F		11.3	3.78			17.8		1.37	10.7											
CC1=C(C(=O)Nc2ccc(Cl)c(Cl)c2)C(c2ccc([N+](=O)[O-])cc2)C(C(=O)Nc2ccc(Cl)c(Cl)c2)=C(C)N1		3.63	4.02			14.8		11.5	24.8											
O=c1c2cc(F)ccc2sc2c(NCCCNCCO)nc3ccccc3c12	4.02	3.52	3.17	3.4	3.44	3.21				2	1.84	1.68	1.59						1.79	1.78
COc1cc(C2(C)SCCCS2)cc(OC)c1OC	> 100	> 100	> 100			> 100	> 100	> 100	> 100											
Cc1cc(=O)c2c(O)cc3c(c2o1)CC=C(COC1OC(COC2OC(CO)C(O)C(O)C2O)C(O)C(O)C1O)CO3 (centres undefined)		> 100	> 100			> 100	> 100	> 100	> 100											
O=C(NCCNCCO)c1cccc2ccc(-c3ccccc3)nc12	> 100	18.3	10.5			19		17.4	27.7											
COc1ccc(-c2[nH]c3ccccc3c2CCNS(=O)(=O)c2ccc(C)cc2)cc1	> 10	> 10	> 10			> 10	> 10	> 10	> 10											
c1ccc2c(c1)CCc1c-2n[nH]c1-c1[nH]nc2c1CCc1ccccc1-2	> 100	> 100	> 100			> 100	> 100	> 100	> 100											
O=C1OC(=O)c2c1c(-c1ccccc1)nc1ccccc21	> 100	> 100	> 100			> 100		> 100	> 100											
CCCC(S(=O)(=O)c1ccccc1)S(=O)(=O)c1ccccc1	> 100	> 100						> 100	> 100											
O=C1c2ccccc2N2OC3(N4CCCC4)CCCCC3C12c1ccccc1 (centres undefined)	53.7					33.7	> 100	> 100	> 100											
COC(=O)C(C(=O)C(=O)Nc1ccc([N+](=O)[O-])cc1)c1nc2ccc([N+](=O)[O-])cc2[nH]c1=O (centres undefined)	> 100	> 100	> 100			> 100	> 100	> 100	> 100											
Cc1cccc(NC(=O)/C(=N\N)C(c2cnc3ccc([N+](=O)[O-])cc3n2)[N+](=O)[O-])c1C (centres undefined)	> 100	> 100	> 100			> 100	> 100		> 100											
